Measurements published in patent US20080194585A1, “Fungicidal Pyrazine Derivatives” (priority 2005, published 2008).
Marks after values point to notes of the source that are not given here.

Key:
Plasmopara viticola = assay: Test D: grape downy mildew, spray after inoculation of grape seedlings; assay type: in vivo
Text: Upon removal, disease ratings were made. […] A dash (-) indicates no test results.

Phytophthora infestans = assay: whole plant or invertebrate; assay type: in vivo
Septoria tritici = assay: Test J: wheat leaf blotch, preventive spray on wheat seedlings; assay type: in vivo
Text: A dash (-) indicates no test results.

fusarium graminearium = assay: Test I: wheat head scab, preventive spray on wheat seedlings
Experimental: (the causal agent of wheat head scab) and incubated in a saturated atmosphere at 20° C. for 72 h, and then moved to a growth chamber at 22° C. for 5 days, after which disease ratings were made.

[1] = test system: Puccinia recondita f. sp. tritici; assay: Test K: wheat leaf rust, preventive spray on wheat seedlings
Botrytis cinerea = assay: Test E: tomato botrytis, preventive spray on tomato seedlings
Septoria nodorum = assay: Test H: wheat glum blotch, preventive spray on wheat seedlings
Experimental: (the causal agent of wheat glum blotch) and incubated in a saturated atmosphere at 20° C. for 48 h, and then moved to a growth chamber at 22° C. for 5 days, after which disease ratings were made.

[2] = test system: Erysiphe graminis f. sp. tritici; assay: Test L: wheat powdery mildew, preventive spray on wheat seedlings
Pythium aphanidermatum = assay: Test A: bluegrass pythium blight, preventive spray on bluegrass seedlings
Rhizoctonia oryzae = assay: Test G: turf brown patch, preventive spray on creeping bent grass seedlings
Experimental: (the causal agent of turf brown patch) and incubated in a saturated atmosphere at 27° C. for 24 h, and then moved to a growth chamber at 27° C. for 5 days, after which disease ratings were made.

[3] = test system: Colletotrichum orbiculare; assay: Test B: cucumber Colletotrichum anthracnose, preventive spray on cucumber seedlings

Structure (SMILES)	Test D disease control rating (Plasmopara viticola; 40 ppm (*))	Test F disease control rating (Phytophthora infestans; 40 ppm (*))	Test J disease control rating (Septoria tritici; 40 ppm (*))	Test I disease control rating (fusarium graminearium; 40 ppm (*))	Test K disease control rating ([1]; 40 ppm (*))	Test E disease control rating (Botrytis cinerea; 40 ppm (*))	Test H disease control rating (Septoria nodorum; 40 ppm (*))	Test L disease control rating ([2]; 40 ppm (*))	Test A disease control rating (Pythium aphanidermatum; 40 ppm (*))	Test G disease control rating (Rhizoctonia oryzae; 40 ppm (*))	Test B disease control rating ([3]; 40 ppm (*))	other results
CCC(C)Cn1c(-c2ccc(F)cc2Cl)c(Cl)nc(-n2cncn2)c1=O (stereo not shown) [compound 165]	31* %	0* %	100* %	0* %	100* %	100* %	100* %	100* %	0* %	16* %	52* %	
CCC(C)Cn1c(-c2ccc(F)cc2Cl)c(Cl)nc(-n2cc(Cl)cn2)c1=O (stereo not shown) [compound 166]	0* %	0* %	100* %	0* %	86* %	100* %	0* %	0* %	0* %	26* %	17* %	
CCC(C)Cn1c(-c2ccc(F)cc2Cl)c(Cl)nc(-n2ccc(C(F)(F)F)n2)c1=O (stereo not shown) [compound 167]	0* %	0* %	93* %	0* %	80* %	0* %	0* %	0* %	0* %	0* %	0* %	
CCC(C)Cn1c(-c2ccc(F)cc2Cl)c(Cl)nc(-n2nc(C)cc2C)c1=O (stereo not shown) [compound 168]	0* %	0* %	36* %	0* %	0* %	0* %	0* %	0* %	0* %	0* %	0* %	
CCC(C)Cn1c(-c2ccc(F)cc2Cl)c(Cl)nc(-n2cc(C)cn2)c1=O (stereo not shown) [compound 169]	0* %	0* %	100* %	0* %	92* %	99* %	97* %	75* %	0* %	0* %	98* %	
CC(C)Cn1c(-c2c(F)c(F)c(F)c(F)c2F)c(Cl)nc(-n2cccn2)c1=O [compound 171]	0* %	0* %	52* %	0* %	96* %	100* %	82* %	99* %	0* %	95* %		Test B disease control rating ([3]; 200 ppm): 0%
CC(C)Cn1c(-c2c(F)cccc2F)c(Cl)nc(-c2cccnc2)c1=O [compound 178]	0* %	0* %	5* %	0* %	0* %	0* %	0* %	0* %	0* %	0* %	0* %	
CCCC(C)n1c(-c2c(F)cccc2F)c(Cl)nc(-n2cccn2)c1=O (stereo not shown) [compound 180]	0* %	0* %	98* %	0* %	100* %	99* %	99* %	95* %	0* %	94* %	66* %	
CCC(CC)n1c(-c2c(F)cccc2F)c(Cl)nc(-n2cccn2)c1=O [compound 181]	0* %	0* %	100* %	0* %	100* %	99* %	99* %	98* %	0* %	100* %	51* %	
CCC(CC)Cn1c(-c2c(F)cccc2F)c(Cl)nc(-n2cccn2)c1=O [compound 183]	0* %	0* %	100* %	0* %	99* %	100* %	89* %	92* %	0* %	81* %	0* %	
CCn1c(-c2c(F)cccc2F)c(Cl)nc(-n2cccn2)c1=O [compound 184]	67* %	0* %	96* %	0* %	98* %	100* %	100* %	98* %	0* %	88* %	0* %	
C#CCn1c(-c2c(F)cccc2F)c(Cl)nc(-n2cccn2)c1=O [compound 186]	0* %	0* %	92* %	0* %	100* %	99* %	100* %	90* %	0* %	67* %	16* %	
O=c1c(-n2cccn2)nc(Cl)c(-c2c(F)cccc2F)n1Cc1ccco1 [compound 187]	0* %	0* %	77* %	0* %	91* %	96* %	0* %	0* %	0* %	0* %	0* %	
O=c1c(-n2cncn2)nc(Cl)c(-c2c(F)cccc2F)n1Cc1ccco1 [compound 188]	0* %	0* %	23* %	0* %	0* %	56* %	0* %	0* %	0* %	0* %	0* %	
N#Cc1nc(Cl)c(-c2c(F)cccc2F)n(Cc2ccco2)c1=O [compound 189]	0* %	0* %	15* %	0* %	0* %	0* %	0* %	0* %	0* %	0* %	0* %	
CC(C)Cn1c(-c2c(F)cccc2F)c(Cl)nc(-c2cnc3ccccn23)c1=O [compound 190]												Test D disease control rating (Plasmopara viticola; 200 ppm): 0%; Test F disease control rating (Phytophthora infestans; 200 ppm): 0%; Test J disease control rating (Septoria tritici; 200 ppm): 0%; Test I disease control rating (fusarium graminearium; 200 ppm): 0%; Test K disease control rating ([1]; 200 ppm): 0%; Test E disease control rating (Botrytis cinerea; 200 ppm): 0%; Test H disease control rating (Septoria nodorum; 200 ppm): 0%; Test L disease control rating ([2]; 200 ppm): 0%; Test A disease control rating (Pythium aphanidermatum; 200 ppm): 0%; Test G disease control rating (Rhizoctonia oryzae; 200 ppm): 0%; Test B disease control rating ([3]; 200 ppm): 0%
CCC(C)Cn1c(-c2c(F)cccc2F)c(Cl)nc(-n2nccn2)c1=O (stereo not shown) [compound 191]												Test D disease control rating (Plasmopara viticola; 200 ppm): 0%; Test F disease control rating (Phytophthora infestans; 200 ppm): 0%; Test J disease control rating (Septoria tritici; 200 ppm): 36%; Test I disease control rating (fusarium graminearium; 200 ppm): 0%; Test K disease control rating ([1]; 200 ppm): 86%; Test E disease control rating (Botrytis cinerea; 200 ppm): 97%; Test H disease control rating (Septoria nodorum; 200 ppm): 0%; Test L disease control rating ([2]; 200 ppm): 0%; Test A disease control rating (Pythium aphanidermatum; 200 ppm): 0%; Test G disease control rating (Rhizoctonia oryzae; 200 ppm): 0%; Test B disease control rating ([3]; 200 ppm): 0%
